≈ marks a conversion by molar mass, not a printed value. Where a SMILES comes first, the peptide text is derived from it.
Experiments:
[1] = system: C500: E. coli, antibiotic strain; type: cell-based; conditions: for MIC C500: antibiotic strain; for MIC C500 (active/inactive): Table 2, class symbols
From the text: (§1) The bacterial strains used were E. coli C498, E. coli C500, Escherichia coli UB1005 and its antibiotic supersusceptible derivative DC2 (22); a clinical isolate of Staphylococcus epidermidis (C621); coryneform bacterial strain Corynebacterium xerosis (C875); and E. coli ATCC 25922, Staphylococcus aureus ATCC 25923, Enterococcus faecalis ATCC 29212, Bacillus subtilis ATCC 6633 and Pseudomonas aeruginosa ATCC 27853, all from American Type Culture Collection.
(§2) Peptide antibacterial activity was assessed by the method of R. Hancock et al. (Wu & Hancock (1999), J. Biol. Chem., v. 274, pp. 29-35). Test strains of bacteria from Mueller Hinton agar (MHA) plates were inoculated into 5 ml Mueller Hinton Broth (MHB) in tubes and grown overnight at 37° C. on a shaker (180 rpm). Serial dilutions of test peptides (at 10 times the required test concentrations) were made in 0.01% acetic acid, 0.2% BSA, in polypropylene or coated glass tubes as follows: the test peptide was (a) dissolved in distilled water at 20 times the required maximum concentration (enough final volume for all tests to be performed on a given day); (b) diluted into an equal volume of 0.02% acetic acid, 0.4% BSA to give 10 times the required maximum concentration; (c) serial doubling dilutions were performed in 0.01% acetic acid, 0.2% BSA to provide serial dilutions of peptides at 10 times the required test concentrations, e.g., 640, 320, 160, . . . 2.5 μg/ml. (No deleterious effects of long-term storage of peptides in these media have been detected). Overnight bacterial cultures were diluted in MHB to give 2−7×10^5 colony forming units/ml. Bacterial suspension (100 μl) was dispensed in each well; controls without bacteria were maintained in parallel. To each well was added 11 μl of 10× test peptide and plates were incubated at 37° C. for 18-24 hours, and checked again at 40-48 hours. Plates were read visually and at 600 nm in a microplate reader (Molecular Devices).
(§3) were synthesized. The antibacterial activity of these peptides was determined against both Gram-positive bacteria ([…], Corynebacterium xerosis) and Gram-negative bacteria (various strains of E. coli). The results are shown in Table 2, along with the average hydrophobicity of each peptide, calculated as described herein.

[2] = system: C498: E. coli, wild type strain; type: cell-based; conditions: for MIC C498: wild type strain; for MIC C498 (active/inactive): Table 2, class symbols
From the text: as §1, §2, §3

E. coli UB1005 = type: cell-based, Escherichia coli; conditions: UB1005
From the text: as §1, §2
(§4) A further number of the peptides of the invention were tested for antimicrobial activity against a range of Gram-positive and Gram-negative bacteria by the assay described immediately before Example 1.

[3] = Hydrophobicity (hydropathy) from reverse-phase HPLC retention scale; type: physicochemical; set-up: key to Average Hydrophobicity of Core Sequence / Mean Core segment Hydrophobicity: arithmetic average of Table 1 hydropathy values of constituent residues; key to Hydropathy: hydropathy scale from HPLC retention times of model peptides (Table 1); conditions: for Mean residue hydropathy of X-residue peptide / Hydropathy: Table 1; for Hydropathy: of the X-residue, from HPLC retention of KKAAAXAAAAAXAAWAAXAAAKKKK-amide peptides; for Average Hydrophobicity of Core Sequence: Table 2, calculated from Table 1 hydropathy values; for Mean Core segment Hydrophobicity: Table 3
From the text: The “hydrophobicity value” of an amino acid residue means the hydrophobicity value of that residue as shown in Table 1 or as calculated by the method described herein.
The “hydrophobicity value” of an amino acid sequence or peptide means the arithmetic average of the individual hydrophobicity values of the constituent amino acid residues of the sequence.
Various hydrophobicity scales for proteins and amino acids have been described in the literature but the inventors have established the hydrophobicity scale of Table 1 based on the retention times on HPLC of a series of hydrophobic model peptides, as described in Liu and Deber (1998), Biopolymers (Peptide Science), v. 47, pp. 41-62).
The hydrophobicity value shown for each amino acid in Table 1 as “hydropathy” may be used as the hydrophobicity value for that amino acid in any peptide whose hydrophobicity value has to be calculated. The “average hydrophobicity” of a peptide containing amino acids shown in Table 1 is calculated by determining the arithmetic average of the Table 1 “hydropathy” values for the constituent amino acids of the sequence.
Peptides in accordance with the invention may also include other amino acids. For an amino acid not included in Table 1, the hydrophobicity value may be determined by the same method as described herein for obtaining the values of Table 1. For example, a peptide such as KKAAAXAAAAAXAAXAAXAAAKKKK-amide (Sequence ID No: 1) may be synthesized, where X is the amino acid whose hydrophobicity value is to be determined, and the retention time of the peptide on HPLC is determined, as described in the Examples. Similar peptides where X is Lys or Phe are also prepared and their HPLC retention times determined. The retention time, Rx, is converted to the hydropathy value H for the selected amino acid using the equation
H=(10×ΔtRx-Lys/ΔtRPhe-Lys)−5.00
where ΔtRx-Lys=retention time difference in minutes between Rx and the retention time of the most hydrophilic peptide tested (X=Lys) and where ΔtRPhe-Lys=retention time difference in minutes between the most hydrophobic peptide tested (X=Phe) and the most hydrophilic (X=Lys).
The retention time of each peptide was determined on a C4 reversed-phase column (4.6×250 mm, 300 A pore size, 10 μ particle size). Equal amounts of each peptide were injected into the column and eluted at a flow rate of 1 mL/min, utilizing a linear AB gradient (2% B/min), where buffer A was 0.1% TFA/ddH2O, and buffer B was 0.1% TFA/acetonitrile. The retention time of each peptide reported here was the average of triplicate measurements.

E. coli DC2 = assay: Assay of antibacterial activity (MIC), E. coli DC2; type: cell-based, Escherichia coli; conditions: Table 3; Gram-negative
From the text: as §1, §2, §4

[4] = system: Staphylococcus epidermidis (C621); type: cell-based; conditions: for MIC C621 (active/inactive): Table 2, class symbols
From the text: as §1, §2, §3, §4

[5] = system: Corynebacterium xerosis (C875); type: cell-based; conditions: for MIC C875 (active/inactive): Table 2, class symbols
From the text: as §1, §2, §3, §4

SMILES	MIC C500 [1] [µM]	MIC C498 [2] [µM]	MIC E. coli UB1005 (E. coli UB1005) [µM]	Mean residue hydropathy of X-residue peptide [3]	Hydropathy [3]	Average Hydrophobicity of Core Sequence [3]	Mean Core segment Hydrophobicity [3]	MIC E. coli DC2 (E. coli DC2) [µM]	MIC C621 [4] [µM]	MIC S. epidermidis C621 [4] [µM]	MIC C875 [5] [µM]	MIC C. xerosis C875 [5] [µM]	MIC C500 (active/inactive) [1]	MIC C498 (active/inactive) [2]	MIC C621 (active/inactive) [4]	MIC C875 (active/inactive) [5]
CC(C)C[C@H](NC(=O)[C@H](C)NC(=O)[C@H](C)NC(=O)[C@H](C)NC(=O)[C@H](CCCCN)NC(=O)[C@@H](N)CCCCN)C(=O)N[C@@H](C)C(=O)N[C@@H](C)C(=O)N[C@@H](C)C(=O)N[C@@H](C)C(=O)N[C@@H](C)C(=O)N[C@@H](CC(C)C)C(=O)N[C@@H](C)C(=O)N[C@@H](C)C(=O)N[C@@H](Cc1c[nH]c2ccccc12)C(=O)N[C@@H](C)C(=O)N[C@@H](C)C(=O)N[C@@H](CC(C)C)C(=O)N[C@@H](C)C(=O)N[C@@H](C)C(=O)N[C@@H](C)C(=O)N[C@@H](CCCCN)C(=O)N[C@@H](CCCCN)C(=O)N[C@@H](CCCCN)C(=O)N[C@@H](CCCCN)C(N)=O [Peptide L25] (H-KKAAALAAAAALAAWAALAAAKKKK-NH2; N-terminus assumed)	6 (≈ 14.3 µg/mL)	6 (≈ 14.3 µg/mL)	32 (≈ 76.1 µg/mL)	1.14	4.76	1.14	1.14	16 (≈ 38 µg/mL)	1.5 (≈ 3.57 µg/mL)	2 (≈ 4.76 µg/mL)	0.2 (≈ 0.476 µg/mL)	<0.25				
C[C@H](NC(=O)[C@H](C)NC(=O)[C@H](C)NC(=O)[C@H](Cc1ccc(O)cc1)NC(=O)[C@H](C)NC(=O)[C@H](C)NC(=O)[C@H](C)NC(=O)[C@H](CCCCN)NC(=O)[C@@H](N)CCCCN)C(=O)N[C@@H](C)C(=O)N[C@@H](C)C(=O)N[C@@H](Cc1ccc(O)cc1)C(=O)N[C@@H](C)C(=O)N[C@@H](C)C(=O)N[C@@H](Cc1c[nH]c2ccccc12)C(=O)N[C@@H](C)C(=O)N[C@@H](C)C(=O)N[C@@H](Cc1ccc(O)cc1)C(=O)N[C@@H](C)C(=O)N[C@@H](C)C(=O)N[C@@H](C)C(=O)N[C@@H](CCCCN)C(=O)N[C@@H](CCCCN)C(=O)N[C@@H](CCCCN)C(=O)N[C@@H](CCCCN)C(N)=O [Peptide Y25] (H-KKAAAYAAAAAYAAWAAYAAAKKKK-NH2; N-terminus assumed)	5 (≈ 12.6 µg/mL)	11 (≈ 27.8 µg/mL)	32 (≈ 80.9 µg/mL)	0.71	2.00	0.71	0.71	16 (≈ 40.4 µg/mL)	3 (≈ 7.58 µg/mL)	8 (≈ 20.2 µg/mL)	0.2 (≈ 0.506 µg/mL)	<0.25				
CC(C)C[C@H](NC(=O)[C@H](C)NC(=O)[C@H](C)NC(=O)[C@H](C)NC(=O)[C@H](CCCCN)NC(=O)[C@@H](N)CCCCN)C(=O)N[C@@H](C)C(=O)N[C@@H](C)C(=O)N[C@@H](C)C(=O)N[C@@H](C)C(=O)N[C@@H](C)C(=O)N[C@@H](CS)C(=O)N[C@@H](C)C(=O)N[C@@H](C)C(=O)N[C@@H](Cc1c[nH]c2ccccc12)C(=O)N[C@@H](C)C(=O)N[C@@H](C)C(=O)N[C@@H](CC(C)C)C(=O)N[C@@H](C)C(=O)N[C@@H](C)C(=O)N[C@@H](C)C(=O)N[C@@H](CCCCN)C(=O)N[C@@H](CCCCN)C(=O)N[C@@H](CCCCN)C(=O)N[C@@H](CCCCN)C(N)=O [[C25]] (H-KKAAALAAAAACAAWAALAAAKKKK-NH2; N-terminus assumed)			16 (≈ 37.9 µg/mL)	0.78	2.49	1.02	1.02	8 (≈ 18.9 µg/mL)		>32		1 (≈ 2.37 µg/mL)	+	+	+	+
CSCC[C@H](NC(=O)[C@H](C)NC(=O)[C@H](C)NC(=O)[C@H](C)NC(=O)[C@H](CCCCN)NC(=O)[C@@H](N)CCCCN)C(=O)N[C@@H](C)C(=O)N[C@@H](C)C(=O)N[C@@H](C)C(=O)N[C@@H](C)C(=O)N[C@@H](C)C(=O)N[C@@H](CCSC)C(=O)N[C@@H](C)C(=O)N[C@@H](C)C(=O)N[C@@H](Cc1c[nH]c2ccccc12)C(=O)N[C@@H](C)C(=O)N[C@@H](C)C(=O)N[C@@H](CCSC)C(=O)N[C@@H](C)C(=O)N[C@@H](C)C(=O)N[C@@H](C)C(=O)N[C@@H](CCCCN)C(=O)N[C@@H](CCCCN)C(=O)N[C@@H](CCCCN)C(=O)N[C@@H](CCCCN)C(N)=O [[M25]] (H-KKAAAMAAAAAMAAWAAMAAAKKKK-NH2; N-terminus assumed)			>32	0.90	3.23	0.89	0.90	32 (≈ 77.8 µg/mL)		16 (≈ 38.9 µg/mL)		0.5 (≈ 1.22 µg/mL)	+	+	+	+

Source: patent publication US20080234188A1, “Antimicrobial Peptides” (The Hospital for Sick Children, priority 2001, published 2008)
